Results taken from US20250034216A1, “STEREOSELECTIVE COVALENT LIGANDS FOR ONCOGENIC AND IMMUNOLOGICAL PROTEINS” (The Scripps Research Institute, priority 2021, published 2025).

Key:
Experiment in all cases: IA-DTB cysteine engagement
Assay type in all cases: binding
Conditions in all cases: 22Rv1 cells, 20 μM probe, 1 h, relative to DMSO
CPT1A_C96 = molecular target: T1, CPT1A_C96 (Homo sapiens, UniProt P50416)
T1 construct: endogenous in cells; host or cells: 22Rv1
T1 sequence (P50416 1-773): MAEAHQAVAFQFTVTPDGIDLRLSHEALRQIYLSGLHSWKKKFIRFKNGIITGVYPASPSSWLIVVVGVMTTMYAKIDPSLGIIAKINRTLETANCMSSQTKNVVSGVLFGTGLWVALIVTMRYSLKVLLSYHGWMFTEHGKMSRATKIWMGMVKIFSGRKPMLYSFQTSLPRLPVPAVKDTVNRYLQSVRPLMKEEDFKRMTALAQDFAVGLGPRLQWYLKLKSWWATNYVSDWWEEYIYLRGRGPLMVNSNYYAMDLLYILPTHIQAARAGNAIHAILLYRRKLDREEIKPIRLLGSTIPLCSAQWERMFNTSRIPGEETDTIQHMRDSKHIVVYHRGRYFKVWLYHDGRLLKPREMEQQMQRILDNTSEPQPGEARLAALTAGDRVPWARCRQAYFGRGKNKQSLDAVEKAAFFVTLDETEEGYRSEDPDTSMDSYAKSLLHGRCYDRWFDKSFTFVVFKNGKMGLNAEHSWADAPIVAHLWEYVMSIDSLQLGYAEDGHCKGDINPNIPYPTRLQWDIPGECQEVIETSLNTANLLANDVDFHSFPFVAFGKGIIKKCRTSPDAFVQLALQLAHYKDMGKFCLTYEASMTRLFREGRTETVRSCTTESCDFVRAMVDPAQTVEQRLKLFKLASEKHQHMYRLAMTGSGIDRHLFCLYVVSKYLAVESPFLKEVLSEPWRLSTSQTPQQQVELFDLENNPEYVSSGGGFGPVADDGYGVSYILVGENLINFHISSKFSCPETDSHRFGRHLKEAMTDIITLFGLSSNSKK
Summary of the method: (§1)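 First, cells are exposed to electrophilic probes in situ. Next, lysates are labeled with IA-DTB (1 h, ambient temperature), reduced, alkylated and trypsin-digested. Then, IA-DTB peptides are enriched on streptavidin, TMT-labeled and analyzed, with ratios taken against DMSO channels.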

MRPS30_C204 = molecular target: T2, MRPS30_C204 (Homo sapiens, UniProt Q9NP92)
T2 construct: endogenous in cells; host or cells: 22Rv1
Summary of the method: as §1

LAPTM4A_C20 = molecular target: T3, LAPTM4A_C20 (Homo sapiens, UniProt Q15012)
T3 construct: endogenous in cells; host or cells: 22Rv1
Summary of the method: as §1

% engagement CPT1A_C96 (CPT1A_C96) [%]	% engagement MRPS30_C204 (MRPS30_C204) [%]	% engagement LAPTM4A_C20 (LAPTM4A_C20) [%]	SMILES
93.5	−41.5	70.5	C=CC(=O)N1C[C@H](c2ccc(Br)cc2)[C@H]1C(=O)Nc1cccc2cccnc12 [MY-3B, (2S,3S)-1-acryloyl-3-(4-bromophenyl)-N-(quinolin-8-yl)azetidine-2-carboxamide]
84.75	−37	55	C=CC(=O)N1C[C@H](c2ccc(Br)cc2)[C@@H]1C(=O)Nc1cccc2cccnc12 [MY-1B, (2R,3S)-1-acryloyl-3-(4-bromophenyl)-N-(quinolin-8-yl)azetidine-2-carboxamide]
89.25	1	49.5	C=CC(=O)N1C[C@H](c2ccc(Br)cc2)[C@H]1C(=O)Nc1cccc2cccnc12 [MY-3A, (2S,3S)-1-acryloyl-3-(4-bromophenyl)-N-(quinolin-8-yl)azetidine-2-carboxamide]
87	74.5	69	C=CC(=O)N1C[C@@H](c2ccc(Br)cc2)[C@H]1C(=O)Nc1cccc2cccnc12 [MY-1A, (2S,3R)-1-acryloyl-3-(4-bromophenyl)-N-(quinolin-8-yl)azetidine-2-carboxamide]
